In patent US7851500B2, “Aminopyrazole kinase inhibitors” (Bristol-Myers Squibb Company, priority 2007, dated 2010):

Target: IGF1-receptor (Homo sapiens, UniProt P08069)
Assay: IGF1-Receptor Tyrosine Kinase Assay
Assay type: biochemical
Settings: ATP 25 μM; FL-peptide 1.5 μM; IGF1-Receptor 14 nM; 60 min room temperature; Caliper LabChip 3000; read-out: IGF-1R IC50
Experimental: D. IGF1-Receptor Tyrosine Kinase Assay
The assays were performed in U-bottom 384-well plates. The final assay volume was 30 μl prepared from 15 μl additions of enzyme and substrates (fluoresceinated IGF1R substrate peptide and ATP) and test compounds in assay buffer (100 mM HEPES pH 7.4, 10 mM MnCl2, 0.015% Brij35 and 4 mM DTT). The reaction was initiated by the combination of IGF1-receptor with substrates and test compounds. The reaction was incubated at room temperature for 60 min. and terminated by adding 30 μl of 35 mM EDTA to each sample. The reaction mixture was analyzed on the Caliper LabChip 3000 by electrophoretic separation of the fluorescent substrate and phosphorylated product. Inhibition data were calculated by comparison to no enzyme control reactions for 100% inhibition and vehicle-only reactions for 0% inhibition. The final concentration of reagents in the assays is ATP, 25 μM; FL-peptide, 1.5 μM; IGF1-Receptor, 14 nM; and DMSO, 1.6%. Dose response curves were generated to determine the concentration required inhibiting 50% of kinase activity (IC50). Compounds were dissolved at 10 mM in dimethylsulfoxide (DMSO) and evaluated at eleven concentrations, each in duplicate. IC50 values were derived by non-linear regression analysis
Compounds described herein were tested in the above assay.

IGF1-receptor, sequence (P08069 31-1367): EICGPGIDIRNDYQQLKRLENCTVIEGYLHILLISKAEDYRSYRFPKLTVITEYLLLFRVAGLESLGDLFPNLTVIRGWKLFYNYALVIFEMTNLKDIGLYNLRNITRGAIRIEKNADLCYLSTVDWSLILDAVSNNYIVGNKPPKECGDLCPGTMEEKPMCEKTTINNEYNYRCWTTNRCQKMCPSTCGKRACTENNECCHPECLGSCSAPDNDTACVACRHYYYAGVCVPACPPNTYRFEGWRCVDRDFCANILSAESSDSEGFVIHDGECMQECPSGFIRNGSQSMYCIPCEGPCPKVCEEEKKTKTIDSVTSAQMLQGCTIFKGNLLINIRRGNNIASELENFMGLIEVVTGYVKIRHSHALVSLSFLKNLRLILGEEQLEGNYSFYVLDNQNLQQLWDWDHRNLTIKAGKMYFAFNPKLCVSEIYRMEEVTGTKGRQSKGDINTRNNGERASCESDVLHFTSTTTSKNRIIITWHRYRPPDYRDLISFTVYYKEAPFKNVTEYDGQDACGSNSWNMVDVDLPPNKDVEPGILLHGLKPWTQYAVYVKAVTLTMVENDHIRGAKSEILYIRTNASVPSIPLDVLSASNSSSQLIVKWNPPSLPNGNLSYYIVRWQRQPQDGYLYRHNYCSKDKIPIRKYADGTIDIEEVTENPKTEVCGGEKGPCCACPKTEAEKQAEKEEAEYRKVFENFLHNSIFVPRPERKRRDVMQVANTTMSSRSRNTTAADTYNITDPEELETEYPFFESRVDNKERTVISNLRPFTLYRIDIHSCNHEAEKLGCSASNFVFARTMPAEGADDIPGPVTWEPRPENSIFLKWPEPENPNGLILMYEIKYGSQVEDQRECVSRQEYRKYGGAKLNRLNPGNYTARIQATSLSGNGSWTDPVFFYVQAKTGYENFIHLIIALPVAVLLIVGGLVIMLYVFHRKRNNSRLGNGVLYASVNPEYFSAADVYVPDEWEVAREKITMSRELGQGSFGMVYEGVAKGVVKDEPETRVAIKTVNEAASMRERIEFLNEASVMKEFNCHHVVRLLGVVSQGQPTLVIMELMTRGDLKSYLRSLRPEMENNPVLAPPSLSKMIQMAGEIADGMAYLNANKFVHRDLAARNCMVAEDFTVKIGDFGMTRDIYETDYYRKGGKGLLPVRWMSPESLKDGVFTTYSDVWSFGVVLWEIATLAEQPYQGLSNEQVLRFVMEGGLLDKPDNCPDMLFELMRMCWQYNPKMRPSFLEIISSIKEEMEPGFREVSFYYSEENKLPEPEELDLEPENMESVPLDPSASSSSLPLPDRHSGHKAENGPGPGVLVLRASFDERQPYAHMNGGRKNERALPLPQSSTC

Structure (SMILES) | IC50
CC(C)(C)OC(=O)N1CC(NC(=O)c2cccc(Sc3cc(Nc4ncnn5cccc45)n[nH]3)c2)C1 [Example 5] | 0.295 µM
O=C(NC1CN(S(=O)(=O)c2ccc(F)cc2)C1)c1cccc(Sc2cc(Nc3ccccn3)n[nH]2)c1 [Example 10, N-(1-(4-Fluorophenylsulfonyl)azetidin-3-yl)-3-(3-(pyridin-2-ylamino)-1H-pyrazol-5-ylthio)benzamide] | 0.0151 µM
O=C(NC1CN(S(=O)(=O)c2ccccc2)C1)c1cccc(Sc2cc(Nc3ncnn4cccc34)n[nH]2)c1 [Example 3, N-(1-(Phenylsulfonyl)azetidin-3-yl)-3-(3-pyrrolo[1,2-f][1,2,4]triazin-4-ylamino-1H-pyrazol-5-ylthio)benzamide] | 0.0124 µM

Results, then the compound that gave them:

IC50 | Structure (SMILES)
3.19 µM | O=C(NCCc1c[nH]cn1)c1cccc(Sc2cc(Nc3ncnn4cccc34)n[nH]2)c1 [Example 8, N-(2-(1H-Imidazol-4-yl)ethyl)-3-(3-(pyrrolo[1,2-f][1,2,4]triazin-4-ylamino)-1H-pyrazol-5-ylthio)benzamide]
> 25 µM | CCOC(=O)c1cccc(Sc2cc(Nc3ncnn4cccc34)n[nH]2)c1 [Example 1, Ethyl 3-(3-(pyrrolo[1,2-f][1,2,4]triazin-4-ylamino)-1H-pyrazol-5-ylthio)benzoate]
4.47 µM | NC(=O)c1cccc(Sc2cc(Nc3ncnn4cccc34)n[nH]2)c1 [Example 4, 3-(3-(Pyrrolo[1,2-f][1,2,4]triazin-4-ylamino)-1H-pyrazol-5-ylthio)benzamide]
